# Reference: ChEMBL document CHEMBL1201862, “PubChem BioAssay data set” (2004)
# Active and inactive are the calls of the source.
# Legend:
# [1] = biological target: Glyceraldehyde-3-phosphate dehydrogenase (Homo sapiens, UniProt P04406)
# Cytochrome P450 2C9 = Cytochrome P450 2C9 (Homo sapiens, UniProt P11712)
# [2] = Luminescence Cell-Based Dose Response HTS to Identify Activators of Luciferase Translation or Activity in H4 […] Cells. [Related pubchem assays: 1829 (Project Summary), 1814 (Primary HTS)]; type: functional
# cells [3] = type: functional, cell-based
# H4 = experiment: Luminescence Cell-Based Dose Response HTS to Identify Activators of 5'UTR Stem-Loop Driven Prion Protein mRNA Translation in H4 Neuroglioblastoma Cells. [Related pubchem assays: 1829 (Project Summary), 1814 (Primary HTS)]; type: functional; details: Homo sapiens
# cells [4] = type: functional, cell-based; remark: listed apart in the source
# [5] = Luminescence Cell-Based Dose Retest to Confirm Inhibitors of Cancer Stem Cells. [Related pubchem assays (depositor defined):AID2717, AID2721]; type: functional; details: Homo sapiens
# [6] = biological target: T1, Ubiquitin-conjugating enzyme E2 N (Homo sapiens, UniProt P61088); type: functional;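 note: Dose-response confirmation in a TR-FRET assay detecting UBC13-driven polyubiquitin chain formation, inhibition measured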
# T1 sequence (P61088 whole entry): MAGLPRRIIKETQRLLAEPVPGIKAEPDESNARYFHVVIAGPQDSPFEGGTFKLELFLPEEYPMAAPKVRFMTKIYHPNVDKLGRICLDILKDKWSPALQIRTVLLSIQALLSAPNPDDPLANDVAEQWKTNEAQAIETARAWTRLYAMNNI
# Cytochrome P450 2C19 = Cytochrome P450 2C19 (Homo sapiens, UniProt P33261); experiment: Cytochrome panel assay with activity outcomes. Panel member name: p450-cyp2c19 Compounds with AC50 equal or less than 10 uM are considered active; type: functional; details: read-out: AC50
# [7] = test system: Streptococcus sp. 'group A'; experiment: Streptococcus pyogenes SK(-)GAS viability under kanamycin – luminescence, BacTiterGlo, confirmation, counter-screen for streptokinase expression inhibitor project, dose response (AID 1900); type: functional, organism-based
# Streptokinase A = biological target: T2, Streptokinase A (Streptococcus pyogenes serotype M1, UniProt P10520); experiment: viability-normalized secreted streptokinase activity reduction – plasminogen activation absorbance, OD405, dose response (AID 1914); type: functional, Streptococcus pyogenes M1 GAS;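 note: secreted streptokinase activity via plasminogen activation per viability signal from cell pellet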
# T2 sequence (P10520 whole entry): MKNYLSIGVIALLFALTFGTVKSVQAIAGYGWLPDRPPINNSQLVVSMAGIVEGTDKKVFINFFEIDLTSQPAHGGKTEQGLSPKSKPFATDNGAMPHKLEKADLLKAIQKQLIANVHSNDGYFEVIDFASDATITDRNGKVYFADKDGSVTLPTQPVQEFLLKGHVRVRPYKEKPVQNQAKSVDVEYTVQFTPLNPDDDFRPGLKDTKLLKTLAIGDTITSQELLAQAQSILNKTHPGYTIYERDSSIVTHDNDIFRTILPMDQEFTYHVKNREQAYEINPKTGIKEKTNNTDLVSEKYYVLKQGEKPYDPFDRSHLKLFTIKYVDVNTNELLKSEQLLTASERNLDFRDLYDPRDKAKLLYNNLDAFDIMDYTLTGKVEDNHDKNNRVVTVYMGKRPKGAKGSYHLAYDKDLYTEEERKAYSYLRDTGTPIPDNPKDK
# Streptococcus = experiment: GAS UMAA2166 growth inhibition – luminescence, BacTiterGlo, counter-screen for streptokinase expression inhibitor project, dose response (AID 1915); type: functional, organism-based;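 note: potency for reduction of bacterial viability or growth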
# [8] = biological target: T3, Mannose-6-phosphate isomerase (Homo sapiens, UniProt P34949); experiment: MPI inhibition at elevated mannose 6-phosphate – biochemical, fluorescence intensity, high mannose 6-phosphate, primary screen (AID 1220)
# T3 sequence (P34949 whole entry): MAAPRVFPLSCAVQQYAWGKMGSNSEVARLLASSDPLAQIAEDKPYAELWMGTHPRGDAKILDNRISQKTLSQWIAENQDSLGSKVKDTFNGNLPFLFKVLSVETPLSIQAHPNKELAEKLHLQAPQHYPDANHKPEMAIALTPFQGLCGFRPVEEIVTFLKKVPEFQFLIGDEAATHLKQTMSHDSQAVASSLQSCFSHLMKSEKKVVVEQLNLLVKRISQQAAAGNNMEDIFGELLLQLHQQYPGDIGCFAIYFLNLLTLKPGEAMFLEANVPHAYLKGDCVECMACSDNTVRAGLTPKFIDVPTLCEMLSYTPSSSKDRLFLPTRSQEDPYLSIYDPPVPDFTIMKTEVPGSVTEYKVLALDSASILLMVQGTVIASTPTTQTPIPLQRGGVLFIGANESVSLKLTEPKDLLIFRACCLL
# [9] = biological target: T4, Replicative DNA helicase DnaB (Mycobacterium tuberculosis, UniProt P9WMR3); experiment: DnaB intein splicing inhibitors, dose response, biochemical, cell-free fluorescence (AID 449749); type: functional
# T4 sequence (P9WMR3 whole entry): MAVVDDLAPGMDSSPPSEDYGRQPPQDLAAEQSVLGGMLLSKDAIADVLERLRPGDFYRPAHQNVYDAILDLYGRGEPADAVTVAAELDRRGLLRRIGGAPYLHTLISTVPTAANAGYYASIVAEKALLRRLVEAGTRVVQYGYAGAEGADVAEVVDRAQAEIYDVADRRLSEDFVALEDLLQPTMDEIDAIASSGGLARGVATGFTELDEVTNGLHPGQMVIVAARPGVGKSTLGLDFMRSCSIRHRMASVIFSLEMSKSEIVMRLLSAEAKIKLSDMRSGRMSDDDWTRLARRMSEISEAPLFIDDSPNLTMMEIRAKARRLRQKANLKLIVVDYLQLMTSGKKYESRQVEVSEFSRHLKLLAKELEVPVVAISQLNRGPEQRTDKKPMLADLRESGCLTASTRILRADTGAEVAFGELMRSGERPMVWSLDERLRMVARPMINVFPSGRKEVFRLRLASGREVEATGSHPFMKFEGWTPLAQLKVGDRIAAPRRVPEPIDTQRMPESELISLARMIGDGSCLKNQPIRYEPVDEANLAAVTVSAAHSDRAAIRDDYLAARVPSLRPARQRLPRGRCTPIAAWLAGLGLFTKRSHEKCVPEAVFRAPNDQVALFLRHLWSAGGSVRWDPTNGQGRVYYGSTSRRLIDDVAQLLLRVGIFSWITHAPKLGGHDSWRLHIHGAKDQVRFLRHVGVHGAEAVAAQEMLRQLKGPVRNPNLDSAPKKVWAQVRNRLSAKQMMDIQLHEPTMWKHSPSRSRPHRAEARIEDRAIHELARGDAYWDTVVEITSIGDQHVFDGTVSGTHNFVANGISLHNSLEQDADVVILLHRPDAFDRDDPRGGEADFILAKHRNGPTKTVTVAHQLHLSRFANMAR
# Protein RecA = biological target: T5, Protein RecA (Mycobacterium tuberculosis, UniProt P9WHJ3); experiment: Fluorescence Cell-Free Homogeneous Dose Retest to Identify Inhibitors of RecA-Intein Splicing Activity. [Related pubchem assays (depositor defined):AID2097, AID2223, AID489010, AID492950]; type: functional
# T5 sequence (P9WHJ3 whole entry): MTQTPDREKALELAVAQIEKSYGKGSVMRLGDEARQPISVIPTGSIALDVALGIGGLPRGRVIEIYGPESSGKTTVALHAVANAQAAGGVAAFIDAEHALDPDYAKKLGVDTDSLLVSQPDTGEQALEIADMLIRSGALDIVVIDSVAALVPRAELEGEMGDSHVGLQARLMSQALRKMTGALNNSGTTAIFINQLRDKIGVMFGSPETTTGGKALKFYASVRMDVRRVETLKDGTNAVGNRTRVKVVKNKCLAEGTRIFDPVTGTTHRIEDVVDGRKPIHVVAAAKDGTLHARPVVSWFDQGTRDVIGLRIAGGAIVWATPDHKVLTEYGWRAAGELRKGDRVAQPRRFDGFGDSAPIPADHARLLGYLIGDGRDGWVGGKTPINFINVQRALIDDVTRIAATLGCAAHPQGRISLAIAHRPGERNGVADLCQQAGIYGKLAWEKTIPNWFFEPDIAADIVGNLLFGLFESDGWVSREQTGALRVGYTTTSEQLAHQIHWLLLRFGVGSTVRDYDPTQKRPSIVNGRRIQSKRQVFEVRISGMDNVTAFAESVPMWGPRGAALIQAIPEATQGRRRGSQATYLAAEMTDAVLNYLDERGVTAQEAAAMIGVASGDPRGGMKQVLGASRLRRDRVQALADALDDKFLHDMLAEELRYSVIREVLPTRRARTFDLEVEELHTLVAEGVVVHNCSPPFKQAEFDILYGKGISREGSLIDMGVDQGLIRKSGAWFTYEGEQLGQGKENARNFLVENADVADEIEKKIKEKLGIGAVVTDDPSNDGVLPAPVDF
# Cytochrome P450 1A2 = biological target: T6, Cytochrome P450 1A2 (Homo sapiens, UniProt P05177);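 note: PubChem cytochrome P450 panel assay, CYP1A2 panel member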
# T6 sequence (P05177 whole entry): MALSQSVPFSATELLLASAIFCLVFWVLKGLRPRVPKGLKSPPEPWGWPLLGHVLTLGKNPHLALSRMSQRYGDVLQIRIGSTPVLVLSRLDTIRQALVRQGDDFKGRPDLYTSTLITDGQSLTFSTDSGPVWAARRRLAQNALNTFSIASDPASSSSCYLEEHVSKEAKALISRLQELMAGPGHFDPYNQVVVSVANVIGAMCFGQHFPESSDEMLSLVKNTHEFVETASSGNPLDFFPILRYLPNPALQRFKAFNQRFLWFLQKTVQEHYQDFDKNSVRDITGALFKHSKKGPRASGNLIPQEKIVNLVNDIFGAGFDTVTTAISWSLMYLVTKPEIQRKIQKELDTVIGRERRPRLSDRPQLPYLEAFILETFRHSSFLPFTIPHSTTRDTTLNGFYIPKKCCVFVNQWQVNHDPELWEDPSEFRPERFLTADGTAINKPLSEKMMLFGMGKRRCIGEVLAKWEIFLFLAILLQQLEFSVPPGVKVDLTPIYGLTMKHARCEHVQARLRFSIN
# [10] = biological target: T7, Heat shock factor protein 1 (Mus musculus, UniProt P38532); experiment: decrease of HSF1-responsive luciferase luminescence – cell-based, NIH3T3, dose retest, confirmation (AID 2382); type: functional;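 note: NIH3T3 fibroblasts with HSF1-driven luciferase reporter stressed by proteasome inhibitor MG132; luminescence from HSF1-driven luciferase expression after 8 hours of MG132 stress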
# T7 sequence (P38532 whole entry): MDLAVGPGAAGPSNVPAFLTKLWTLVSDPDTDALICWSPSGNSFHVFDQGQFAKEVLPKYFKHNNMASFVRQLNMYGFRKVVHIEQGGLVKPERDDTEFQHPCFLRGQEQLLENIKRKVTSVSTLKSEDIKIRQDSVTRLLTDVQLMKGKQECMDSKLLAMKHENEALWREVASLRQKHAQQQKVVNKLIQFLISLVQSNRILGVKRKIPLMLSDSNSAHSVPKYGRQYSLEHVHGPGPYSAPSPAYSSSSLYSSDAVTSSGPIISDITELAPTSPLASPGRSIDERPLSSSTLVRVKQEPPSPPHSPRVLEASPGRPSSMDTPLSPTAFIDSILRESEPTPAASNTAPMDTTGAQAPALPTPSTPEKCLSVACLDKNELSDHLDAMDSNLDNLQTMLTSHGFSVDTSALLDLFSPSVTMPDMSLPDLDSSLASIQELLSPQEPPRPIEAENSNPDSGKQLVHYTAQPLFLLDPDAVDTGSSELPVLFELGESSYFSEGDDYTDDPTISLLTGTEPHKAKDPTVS
# Cytochrome P450 2C19, sequence (P33261 whole entry): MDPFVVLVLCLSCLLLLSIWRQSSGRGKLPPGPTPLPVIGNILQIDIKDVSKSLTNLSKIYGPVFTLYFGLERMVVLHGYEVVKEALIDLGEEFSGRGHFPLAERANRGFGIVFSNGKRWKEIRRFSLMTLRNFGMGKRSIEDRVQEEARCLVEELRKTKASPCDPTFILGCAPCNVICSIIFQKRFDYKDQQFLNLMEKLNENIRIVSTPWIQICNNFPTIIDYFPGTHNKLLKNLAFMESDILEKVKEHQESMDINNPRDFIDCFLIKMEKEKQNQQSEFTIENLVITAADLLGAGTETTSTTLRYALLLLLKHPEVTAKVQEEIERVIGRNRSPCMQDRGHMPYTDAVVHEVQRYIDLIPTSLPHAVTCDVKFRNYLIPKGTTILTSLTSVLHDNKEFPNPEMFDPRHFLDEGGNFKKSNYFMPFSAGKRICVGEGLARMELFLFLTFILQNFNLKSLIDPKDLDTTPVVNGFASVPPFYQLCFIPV
# Cytochrome P450 2C9, sequence (P11712 whole entry): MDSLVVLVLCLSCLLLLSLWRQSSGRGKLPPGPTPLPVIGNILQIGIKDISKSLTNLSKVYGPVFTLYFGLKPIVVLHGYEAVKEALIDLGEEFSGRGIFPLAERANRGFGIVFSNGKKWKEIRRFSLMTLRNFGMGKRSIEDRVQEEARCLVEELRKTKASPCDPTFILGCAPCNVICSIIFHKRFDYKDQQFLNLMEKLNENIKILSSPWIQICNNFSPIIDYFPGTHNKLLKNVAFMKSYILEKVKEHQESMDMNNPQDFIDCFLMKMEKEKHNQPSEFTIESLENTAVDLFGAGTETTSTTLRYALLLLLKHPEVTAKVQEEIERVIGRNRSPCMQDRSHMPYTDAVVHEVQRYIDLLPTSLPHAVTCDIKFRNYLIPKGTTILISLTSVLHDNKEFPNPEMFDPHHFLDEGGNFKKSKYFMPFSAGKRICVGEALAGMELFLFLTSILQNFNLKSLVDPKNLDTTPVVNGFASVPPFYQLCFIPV
# Glyceraldehyde-3-phosphate dehydrogenase, sequence (P04406 whole entry): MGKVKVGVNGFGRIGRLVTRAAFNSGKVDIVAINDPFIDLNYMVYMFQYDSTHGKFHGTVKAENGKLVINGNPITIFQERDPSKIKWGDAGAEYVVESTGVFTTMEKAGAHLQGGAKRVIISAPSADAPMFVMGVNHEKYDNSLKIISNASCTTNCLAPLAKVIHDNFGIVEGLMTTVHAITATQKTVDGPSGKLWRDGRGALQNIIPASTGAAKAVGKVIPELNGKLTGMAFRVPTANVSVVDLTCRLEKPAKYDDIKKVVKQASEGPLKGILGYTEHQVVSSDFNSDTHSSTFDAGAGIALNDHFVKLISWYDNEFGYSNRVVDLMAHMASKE
structure (smiles),measurement,setting,value
COc1ccc(S(=O)(=O)Nc2cccnc2)c(OC)c1,IC50,[1],> 100 µM (not active)
O=C(Cc1c[nH]c2ccccc12)OCC(=O)c1ccccc1,AC50,Cytochrome P450 2C9,inconclusive
CN(C)/N=C/C=C1\CCC/C(=C/c2cccs2)C1=O,EC50,[2],452 nM (active)
same,EC50,cells [3],> 350 µM (not active)
same,EC50,H4,> 120 µM (not active)
same,EC50,cells [4],5.27 µM (active)
NS(=O)(=O)c1ccc(NC(=O)c2ccc(CSc3ccccc3)o2)cc1,EC50,cells [3],> 350 µM (not active)
same,EC50,cells [4],> 350 µM (not active)
Cc1cc(N2CCN(C)CC2)nc2ccc(NC(=S)N3CCN(c4ccc(F)cc4)CC3)cc12,AC50,[5],5.34 µM (active)
same,IC50,[6],> 20 µM (inactive)
CCOC(=O)N1CCN(C(=O)CN(C)S(=O)(=O)c2ccc3c(c2)C(C)(C)C(=O)N3C)CC1,AC50,Cytochrome P450 2C19,3.16 µM (inconclusive)
same,AC50,Cytochrome P450 2C9,inconclusive
CN1c2ccccc2C(C)(C)C12C=Nc1c(ccc3ccccc13)O2 (centres undefined),EC50,[7],3.92 µM (active)
same,EC50,Streptokinase A,24 µM (active)
same,EC50,Streptococcus,> 150 µM (not active)
same,IC50,[8],> 50 µM (not active)
same,AC50,[9],32.4 µM (active)
same,EC50,Protein RecA,14.4 µM (active)
Cc1ccc(C)c(NC(=O)CN(C)C(=O)Cc2coc3cc(C)c(C)cc23)c1,EC50,cells [3],> 350 µM (not active)
same,EC50,cells [4],> 350 µM (not active)
COC(=O)Nc1ccc(=O)n(Cc2c(Cl)cccc2Cl)c1,EC50,cells [3],> 350 µM (not active)
same,EC50,cells [4],> 350 µM (not active)
CN(C)C1=C(Cl)C(=O)N(c2ccc(C(F)(F)F)cc2)C1=O,IC50,[1],> 50 µM (inconclusive)
NC[C@H](Cc1ccccc1)NCCc1cc(C(F)(F)F)cc(C(F)(F)F)c1,IC50,[6],> 20 µM (inactive)
Cc1cnc(CNc2ncnc3ccc(-c4ccccc4CN(C)C)cc23)cn1,AC50,Cytochrome P450 2C19,31.6 µM (inconclusive)
same,AC50,Cytochrome P450 2C9,inconclusive
Cc1cc(C(=O)OCC(=O)NCCCN2CCCC2=O)c2ccccc2n1,AC50,Cytochrome P450 2C19,35.5 µM (inconclusive)
same,AC50,Cytochrome P450 1A2,14.1 µM (inconclusive)
same,AC50,Cytochrome P450 2C9,inconclusive
COc1cc(NC(=S)Nc2cccnc2)cc(OC)c1,IC50,[8],> 50 µM (not active)
COc1ccc(NC(=O)CSc2nc3c(c(-c4cccs4)c2C#N)CN(C)CC3)cc1OC,IC50,[8],> 50 µM (not active)
O=C(NCCCCO)c1cc(-c2ccc(Cl)cc2Cl)n[nH]1,IC50,[1],> 10 µM (inconclusive)
COc1ccc(-n2c(=S)[nH]c3sc4c(c3c2=O)CCc2ccccc2-4)cc1,IC50,[8],25.7 µM (active)
Cc1cc(/C=N/N2CCN(C)CC2)c(C)n1-c1ccc(Cl)cc1,EC50,cells [3],> 350 µM (not active)
same,EC50,cells [4],> 350 µM (not active)
Cn1nc(N)c2c(-c3ccccc3)c(C#N)c(N)nc21,EC50,[10],> 195 µM (not active)
same,IC50,[6],> 20 µM (inactive)
COc1ccc(OC)c(CNC(=O)C2CCCN(S(=O)(=O)N3CCC(C)CC3)C2)c1 (centres undefined),EC50,cells [3],> 350 µM (not active)
same,EC50,cells [4],> 350 µM (not active)
